Experimental data: PMC8658889, “Seriniquinones as Therapeutic Leads for Treatment of BRAF and NRAS Mutant Melanomas” (Molecules, 2021)

Columns and labels:
SK-MEL-28 = test: Clonogenic assay; type: cell-based, Human; details: SK-MEL-28, 24 h treatment at half IC50 and IC50, 6 days in drug-free medium
Method: […] (2.5 × 10^5) cells in 1 mL of media were seeded in cell culture dishes and, 24 h later, treated with SQ1 (0.3 µM and 0.6 µM for SK-MEL-28 and 0.9 µM and 1.8 µM for SK-MEL-147) or SQ2 (0.05 µM and 0.1 µM for SK-MEL-28 and 0.6 µM and 1.2 µM for SK-MEL-147) for 24 h. Doxorubicin (DOX; 1.4 µM for SK-MEL-28 and 0.8 µM for SK-MEL-147) was used as positive control and 0.5% DMSO as negative control.
After the cells were submitted to the treatment scheme (Section 4.6), adherent cells were collected, plated at 1 × 10^3 cell/plate on 35-mm plates and maintained in culture for 6 days in treatment-free medium. The medium was replaced every 2 days. Cells were then fixed and stained with a solution of 20% MeOH (Synth, Diadema, São Paulo, Brazil) and 0.5 g crystal violet (Sigma-Aldrich, St. Louis, MO, USA). Images were acquired using G:BOX Chemi XRQ (Syngene, Cambridge, UK) and quantified using the ImageJ program (ColonyArea; US National Institutes of Health, Bethesda, MD, USA).

melanoma cells = test: MTT cytotoxicity assay, melanoma panel; type: cell-based, Human
Source text: Human cell lines were used throughout this program. SK-MEL-19 (melanoma BRAF^V600E, NRAS^WT), SK-MEL-28 (melanoma BRAF^V600E, NRAS^WT), SK-MEL-147 (melanoma BRAF^WT, NRAS^Q61R), MRC-5 (fibroblasts), and primary fibroblast (FDH) were kindly provided by Professor Glaucia Santelli (University of São Paulo, Brazil). MCF7 (breast adenocarcinoma, ATCC HTB-22), and HCT-116 (colorectal carcinoma, ATCC 247) cells were obtained from American Type Culture Collection (ATCC) and deposited in the Cell Bank of Rio de Janeiro, Brazil. WM293A (metastatic melanoma BRAF^V600D, NRAS^WT), 501mel (metastatic melanoma BRAF^V600E; NRAS^G12D), and MM200 (melanoma BRAF^V600E, NRAS^WT) were kindly provided by Professor Sharon Prince, University of Cape Town, South Africa. All human melanoma and breast cell lines were cultivated with Dulbecco’s Modified Eagle Medium: Nutrient Mixture F-12 (Thermo Fisher Scientific, San Jose, CA, USA). MM200 and HCT-116 were maintained with Roswell Park Memorial Institute (RPMI) medium (Thermo Fisher Scientific, San Jose, CA, USA). Unless stated otherwise, media was supplemented with 10% fetal bovine serum (FBS) and 1% penicillin-streptomycin (Thermo Fisher Scientific, San Jose, CA, USA). Cells were incubated with 5% CO2 at 37 °C. When required, cells were detached from flask using trypsin-EDTA 0.05% (Thermo Fisher Scientific, San Jose, CA, USA).
Cytotoxic activity was evaluated by the transformation of 3-(4,5-dimethylthiazol-2-yl)-2,5-diphenyltetrazolium bromide (MTT; Thermo Fisher Scientific, San Jose, CA, USA) into formazan by viable cells. Cells were plated in a 96-well plate (1 × 10^4 cells/well) and, 24 h later, exposed to serial dilutions of the test compounds (from 0.00032 to 5.0 µM) for 24, 48, and 72 h. For each analysis, negative controls received 0.5% DMSO and positive control was delivered by doxorubicin (DOX; 0.05 to 10.0 µM). At the end of the incubation periods, the medium was replaced with fresh medium containing 0.5 mg/mL of MTT and supernatant was removed 3 h later. The plates were dried at 50 °C for 30 min and formazan was solubilized in DMSO (150 µL/well) for the absorbance measure at 570 nm on a plate reader (Thermo Fisher Scientific, San Jose, CA, USA). IC50 values (half-maximal inhibitory concentration) along with 95% CI (confidence intervals) were calculated by non-linear regression using GraphPad Prism 8.0 software (GraphPad Software, Inc., San Diego, CA, USA).

Compound	reduction of the colony levels (SK-MEL-28)	selectivity indices to SK-Mel cells in relation to non-tumor cell lines (melanoma cells; SK-Mel cells versus non-tumor cell lines)	selectivity for melanoma cells (SI ratio) (melanoma cells; melanoma cells versus non-tumor cell lines MRC-5 or FDH, highest values reached)
O=c1c2ccccc2c(=O)c2c1sc1c(=O)c3ccccc3c(=O)c12 [SQ1, seriniquinone]	greater than 50%		
CC(C)(O)C(O)CCc1ccc2c(=O)c3sc4c(=O)c5ccccc5c(=O)c4c3c(=O)c2c1 (stereo not drawn) [SQ2]		≥ twofold	30–40
